This is an account of results in US20090270350A1, “Pyridinone Pyrazole Urea and Pyrimidinone Pyrazole Urea Derivatives” (PFIZER INC., priority 2006, published 2009).

One series concerns the target p38α (Homo sapiens, UniProt Q16539). Nature of the series: p38α/MK2 cascade assay. Format: biochemical. As to conditions: Table 1; inhibitors preincubated with p38α for 40 minutes; phosphorylation of Hsp27 peptide by MK-2, Caliper LabChip 3000; read-out: p38a/MK2 Cascade 40 min Pre-Incuabtion (% Inhibition): IC50. A digest of the protocol: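 In a cascade format, p38α was preincubated 40 min with inhibitor (1000–0.05 nM) before adding 1 nM nonactive MK2 (54-400), 5 μM MgATP and 0.5 μM FITC-Hsp27 peptide. Reaction ran 60 min in HEPES pH 7.5 with MgCl2, DTT, 2% DMSO, then EDTA-quenched. Peptide phosphorylation was measured by Caliper mobility shift to give IC50.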

p38α, sequence (Q16539 whole entry): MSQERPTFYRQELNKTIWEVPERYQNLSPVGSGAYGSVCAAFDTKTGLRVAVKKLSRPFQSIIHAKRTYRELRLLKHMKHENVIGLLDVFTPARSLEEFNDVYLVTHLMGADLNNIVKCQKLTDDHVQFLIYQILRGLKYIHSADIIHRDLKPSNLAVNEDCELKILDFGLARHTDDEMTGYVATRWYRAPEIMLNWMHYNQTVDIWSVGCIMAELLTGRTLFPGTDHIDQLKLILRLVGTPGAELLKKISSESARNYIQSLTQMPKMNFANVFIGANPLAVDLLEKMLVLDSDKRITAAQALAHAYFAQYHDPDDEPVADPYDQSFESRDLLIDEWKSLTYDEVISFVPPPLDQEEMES

On to `Cc1ccc(C(=O)NCCN(C)C)cc1-n1c(C)cc(OCc2ccc(F)cc2CNC(=O)Nc2cc(C(C)(C)C)nn2-c2cccc(OCCO)c2)c(Cl)c1=O` [Example 178], for which the melting point (as a rule, the temperature of the solid-liquid transition) fell in the range of 158 to 160 °C. In addition, the IC50 at p38α worked out at 1.4 nM. For `CNC(=O)CNC(=O)c1ccc(C)c(-n2c(C)cc(OCc3ccccc3CNC(=O)Nc3cc(C(C)(C)C)nn3-c3ccc(Cl)c(O)c3)c(Cl)c2=O)c1` [Example 167, 3-[4-(2-{3-[5-tert-Butyl-2-(4-chloro-3-hydroxy-phenyl)-2H-pyrazol-3-yl]-ureidomethyl}-benzyloxy)-3-chloro-6-methyl-2-oxo-2H-pyridin-1-yl]-4-methyl-N-methylcarbamoylmethyl-benzamide], in that order: 179 to 181 °C and 1.7 nM. For `Cc1ccc(C(=O)NC(C)C(N)=O)cc1-n1c(C)cc(OCc2ccccc2CNC(=O)Nc2cc(C(C)(C)C)nn2-c2ccc(O)c(Cl)c2)c(Cl)c1=O` (stereo in doubt) [Example 159, (R)-3-[4-(2-{3-[5-tert-butyl-2-(3-chloro-4-hydroxy-phenyl)-2H-pyrazol-3-yl]-ureidomethyl}-benzyloxy)-3-chloro-6-methyl-2-oxo-2H-pyridin-1-yl]-N-(1-carbamoyl-ethyl)-4-methyl-benzamide], in that order: 192 to 193 °C and 2.5 nM. For `CNC(=O)CNC(=O)c1ccc(C)c(-n2c(C)cc(OCc3ccccc3CNC(=O)Nc3cc(C(C)(C)C)nn3-c3ccc(O)c(Cl)c3)c(Cl)c2=O)c1` [Example 156, 3-[4-(2-{3-[5-tert-butyl-2-(3-chloro-4-hydroxy-phenyl)-2H-pyrazol-3-yl]-ureidomethyl}-benzyloxy)-3-chloro-6-methyl-2-oxo-2H-pyridin-1-yl]-4-methyl-N-methylcarbamoylmethyl-benzamide], in that order: 209 to 211 °C and 3.5 nM. Consider `CNC(=O)c1ccc(C)c(-n2c(C)cc(OCc3ccccc3CNC(=O)Nc3cc(C(C)(C)C)nn3-c3ccc(Cl)c(O)c3)c(Cl)c2=O)c1` [Example 161, 3-[4-(2-{3-[5-tert-butyl-2-(4-chloro-3-hydroxy-phenyl)-2H-pyrazol-3-yl]-ureidomethyl}-benzyloxy)-3-chloro-6-methyl-2-oxo-2H-pyridin-1-yl]-4,N-dimethyl-benzamide], for which the melting point was 201 to 203 °C.

The compound `COCCNC(=O)c1ccc(C)c(-n2c(C)cc(OCc3ccccc3CNC(=O)Nc3cc(C(C)(C)C)nn3-c3cccc(OCCO)c3)c(Cl)c2=O)c1` [Example 173] had a melting point of 143 to 145 °C. Same read-out and setting: then `COCCNC(=O)c1ccc(C)c(-n2c(C)cc(OCc3ccc(F)cc3CNC(=O)Nc3cc(C(C)(C)C)nn3-c3ccc(Cl)c(O)c3)c(Cl)c2=O)c1` [Example 164, 3-[4-(2-{3-[5-tert-butyl-2-(4-chloro-3-hydroxy-phenyl)-2H-pyrazol-3-yl]-ureidomethyl}-4-fluoro-benzyloxy)-3-chloro-6-methyl-2-oxo-2H-pyridin-1-yl]-N-(2-methoxy-ethyl)-4-methyl-benzamide], with 186 to 187 °C; and `Cc1ccc(C(=O)NCC(N)=O)cc1-n1c(C)cc(OCc2ccccc2CNC(=O)Nc2cc(C(C)(C)C)nn2-c2ccc(O)c(Cl)c2)c(Cl)c1=O` [Example 160, 3-[4-(2-{3-[5-tert-butyl-2-(3-chloro-4-hydroxy-phenyl)-2H-pyrazol-3-yl]-ureidomethyl}-benzyloxy)-3-chloro-6-methyl-2-oxo-2H-pyridin-1-yl]-N-carbamoylmethyl-4-methyl-benzamide], with 228 to 230 °C; and `Cc1ccc(C(=O)NCCO)cc1-n1c(C)cc(OCc2ccccc2CNC(=O)Nc2cc(C(C)(C)C)nn2-c2cccc(OCCO)c2)c(Cl)c1=O` [Example 132, 3-{4-[2-(3-{5-tert-Butyl-2-[3-(2-hydroxy-ethoxy)-phenyl]-2H-pyrazol-3-yl}-ureidomethyl)-benzyloxy]-3-chloro-6-methyl-2-oxo-2H-pyridin-1-yl}-N-(2-hydroxy-ethyl)-4-methyl-benzamide], with 162 to 163 °C. Still for that read-out and setting: then `Cc1ccc(C(=O)NCCN(C)C)cc1-n1c(C)cc(OCc2ccccc2CNC(=O)Nc2cc(C(C)(C)C)nn2-c2cccc(OCCO)c2)c(Cl)c1=O` [Example 174], with 164 to 165 °C; and `COC(=O)c1ccc(C)c(-n2c(C)cc(OCc3ccccc3CNC(=O)Nc3cc(C(C)(C)C)nn3-c3ccc(O)c(Cl)c3)c(Cl)c2=O)c1` [Example 137, 3-[4-(2-{3-[5-tert-butyl-2-(3-chloro-4-hydroxy-phenyl)-2H-pyrazol-3-yl]-ureidomethyl}-benzyloxy)-3-chloro-6-methyl-2-oxo-2H-pyridin-1-yl]-4-methyl-benzoic acid methyl ester], with 185 to 186 °C.
